From patent US20230265151A1, “GIP/GLP1 CO-AGONIST COMPOUNDS” (priority 2020, published 2023)
Read-outs that look alike come from different tables or passages of the source. *1 amine or outer side, *2 acyl side, *3 side chain or, on linkers, in order; H or OH if unused. Where a SMILES comes first, the peptide text is derived from it. Side-chain parts run from the residue outwards. [ ]: non-standard residue; d: D form. The star is where a group is joined. αMePhe(2-F) = C[C@](N)(Cc1ccccc1F)C(=O)O; γGlu = O=C(O)[C@H](CCC(=O)[*:2])N[*:1]; C14 diacid = O=C(O)CCCCCCCCCCCCC(=O)*; αMeY = C[C@](N)(Cc1ccc(O)cc1)C(=O)O; 4Pal = N[C@@H](Cc1ccncc1)C(=O)O; αMeL = CC(C)C[C@](C)(N)C(=O)O; Orn = NCCC[C@H](N)C(=O)O; AEEA = NCCOCCOCC(=O)O; Aib = CC(C)(N)C(=O)O

What was measured:
Type in all cases: cell-based
hGIPR = target: T1, hGIPR (Homo sapiens, UniProt P48546); assay: Functional cAMP formation (HTRF) in HEK-293 clonal cells expressing hGIPR, 0.1% bovine casein, without or with 1.0% human serum albumin; conditions: 37° C.; for Emax: HEK293, cAMP, percent of maximal response to GIP(1-42)NH2, read-out: hGIPR Emax, % ± SEM; for EC50: cAMP, read-out: hGIPR EC50, nM (SEM, n)
T1 construct: expressed in transfected cells
T1 sequence (P48546 22-466): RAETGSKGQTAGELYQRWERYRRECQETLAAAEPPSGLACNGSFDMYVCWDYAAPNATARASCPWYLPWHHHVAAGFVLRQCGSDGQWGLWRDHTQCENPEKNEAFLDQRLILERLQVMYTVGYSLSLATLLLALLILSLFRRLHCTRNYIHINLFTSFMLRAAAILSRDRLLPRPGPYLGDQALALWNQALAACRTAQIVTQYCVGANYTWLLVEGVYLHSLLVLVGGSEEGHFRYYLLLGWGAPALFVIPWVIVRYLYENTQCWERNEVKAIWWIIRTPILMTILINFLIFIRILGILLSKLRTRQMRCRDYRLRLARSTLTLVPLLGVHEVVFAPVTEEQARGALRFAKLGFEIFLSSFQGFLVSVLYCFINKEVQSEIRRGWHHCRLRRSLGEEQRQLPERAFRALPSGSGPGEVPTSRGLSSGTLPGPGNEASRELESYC
Outline: (§1)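 Cells were stimulated with peptide for 30 min at 37° C, then lysed in buffer carrying cAMP-d2 and anti-cAMP Eu3+-cryptate for a competitive HTRF read after at least 60 min at room temperature. The 665/620 nm ratio was converted to nM cAMP against a standard curve.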

hGCGR = target: T2, hGCGR (Homo sapiens, UniProt P47871); assay: Functional cAMP formation (HTRF) in HEK-293 clonal cells expressing hGCGR, 0.1% bovine casein, without or with 1.0% human serum albumin; conditions: cAMP, 37° C., read-out: hGCGR EC50, nM (SEM, n)
T2 construct: expressed in transfected cells
Outline: as §1

hGLP-1R = hGLP-1R (Homo sapiens, UniProt P43220); assay: Functional cAMP formation (HTRF) in HEK-293 clonal cells expressing hGLP-1R, 0.1% bovine casein, without or with 1.0% human serum albumin; design: expressed in transfected cells; conditions: 37° C.; for Emax: HEK293, cAMP, percent of maximal response to GLP-1(7-36)NH2, read-out: hGLP-1R Emax, % ± SEM; for EC50: cAMP, read-out: hGLP-1R EC50, nM (SEM, n)
Outline: as §1

[1] = 0.1% bovine casein and 1.0% human serum albumin
[2] = 0.1% bovine casein (no human serum albumin), geometric mean
[3] = 0.1% bovine casein and 1.0% human serum albumin, geometric mean (SEM, n)
[4] = 0.1% bovine casein, arithmetic mean

T2 sequence (P47871 26-477): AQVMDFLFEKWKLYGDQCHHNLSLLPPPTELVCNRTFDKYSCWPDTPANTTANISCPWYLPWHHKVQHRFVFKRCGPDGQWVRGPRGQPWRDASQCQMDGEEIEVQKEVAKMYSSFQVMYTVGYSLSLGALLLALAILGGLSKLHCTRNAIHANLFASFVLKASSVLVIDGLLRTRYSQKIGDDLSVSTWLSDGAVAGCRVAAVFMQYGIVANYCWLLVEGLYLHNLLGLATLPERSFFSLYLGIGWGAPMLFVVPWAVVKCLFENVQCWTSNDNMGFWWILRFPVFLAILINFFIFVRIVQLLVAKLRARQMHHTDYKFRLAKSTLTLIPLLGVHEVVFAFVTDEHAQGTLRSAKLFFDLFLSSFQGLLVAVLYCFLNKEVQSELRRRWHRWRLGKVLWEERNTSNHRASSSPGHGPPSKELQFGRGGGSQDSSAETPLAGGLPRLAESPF
Chain of hGLP-1R (P43220 24-463): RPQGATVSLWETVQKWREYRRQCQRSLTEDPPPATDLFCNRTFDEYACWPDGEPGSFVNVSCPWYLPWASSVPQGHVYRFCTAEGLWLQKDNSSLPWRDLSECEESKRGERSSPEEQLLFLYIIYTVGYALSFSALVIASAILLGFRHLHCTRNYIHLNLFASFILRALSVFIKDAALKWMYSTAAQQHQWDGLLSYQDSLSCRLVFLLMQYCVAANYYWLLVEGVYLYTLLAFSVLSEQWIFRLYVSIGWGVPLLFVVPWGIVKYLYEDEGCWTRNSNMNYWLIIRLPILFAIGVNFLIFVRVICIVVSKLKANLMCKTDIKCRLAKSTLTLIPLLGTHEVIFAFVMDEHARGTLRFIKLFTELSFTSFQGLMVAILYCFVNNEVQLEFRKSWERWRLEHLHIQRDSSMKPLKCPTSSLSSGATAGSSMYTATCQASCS

SMILES	Emax (hGIPR; [1])	EC50 (hGIPR; [2])	EC50 (hGCGR; [2])	EC50 (hGCGR; [3])	Emax (hGLP-1R; [1])	Emax (hGLP-1R; [4])	EC50 (hGLP-1R; [2])	Emax (hGIPR; [4])	EC50 (hGIPR; [3])	EC50 (hGLP-1R; [3])
CC[C@H](C)[C@H](NC(=O)[C@H](CCCN)NC(=O)[C@H](CC(=O)O)NC(=O)[C@H](CC(C)C)NC(=O)[C@](C)(CC(C)C)NC(=O)[C@@H](NC(=O)C(C)(C)NC(=O)[C@H](Cc1ccncc1)NC(=O)[C@H](CC(=O)O)NC(=O)[C@H](CO)NC(=O)[C@@H](NC(=O)[C@](C)(Cc1ccccc1F)NC(=O)[C@@H](NC(=O)CNC(=O)[C@H](CCC(=O)O)NC(=O)C(C)(C)NC(=O)[C@@H](N)Cc1ccc(O)cc1)[C@@H](C)O)[C@@H](C)O)[C@@H](C)CC)C(=O)N[C@@H](C)C(=O)N[C@@H](CCC(N)=O)C(=O)NC(C)(C)C(=O)N[C@@H](CCC(=O)O)C(=O)N[C@@H](Cc1ccccc1)C(=O)N[C@H](C(=O)N[C@@H](CCCCNC(=O)COCCOCCNC(=O)CC[C@H](NC(=O)CCCCCCCCCCCCC(=O)O)C(=O)O)C(=O)N[C@@](C)(Cc1ccc(O)cc1)C(=O)N[C@@H](CC(C)C)C(=O)N[C@H](C(=O)N[C@@H](CCCCNC(=O)COCCOCCNC(=O)CC[C@H](NC(=O)CCCCCCCCCCCCC(=O)O)C(=O)O)C(=O)NCC(=O)NCC(=O)N1CCC[C@H]1C(=O)N[C@@H](CO)C(=O)N[C@@H](CO)C(=O)NCC(=O)N[C@@H](C)C(=O)N1CCC[C@H]1C(=O)N1CCC[C@H]1C(=O)N1CCC[C@H]1C(=O)N[C@@H](CO)C(N)=O)[C@@H](C)CC)[C@@H](C)CC [Example 339]	87.3%	0.019 nM	> 10100 nM	> 10100 nM	115%	113%	0.308 nM	–	–	–
CC[C@H](C)[C@H](NC(=O)[C@H](CCCN)NC(=O)[C@H](CC(=O)O)NC(=O)[C@H](CC(C)C)NC(=O)[C@](C)(CC(C)C)NC(=O)[C@@H](NC(=O)C(C)(C)NC(=O)[C@H](Cc1ccncc1)NC(=O)[C@H](CC(=O)O)NC(=O)[C@H](CO)NC(=O)[C@@H](NC(=O)[C@](C)(Cc1ccccc1F)NC(=O)[C@@H](NC(=O)CNC(=O)[C@H](CCC(=O)O)NC(=O)C(C)(C)NC(=O)[C@@H](N)Cc1ccc(O)cc1)[C@@H](C)O)[C@@H](C)O)[C@@H](C)CC)C(=O)N[C@@H](C)C(=O)N[C@@H](CCC(N)=O)C(=O)NC(C)(C)C(=O)N[C@@H](CCCCNC(=O)COCCOCCNC(=O)CC[C@H](NC(=O)CCCCCCCCCCCCC(=O)O)C(=O)O)C(=O)N[C@@H](Cc1ccccc1)C(=O)N[C@H](C(=O)N[C@H](CCC(=O)O)C(=O)N[C@@](C)(Cc1ccc(O)cc1)C(=O)N[C@@H](CC(C)C)C(=O)N[C@H](C(=O)N[C@@H](CCCCNC(=O)COCCOCCNC(=O)CC[C@H](NC(=O)CCCCCCCCCCCCC(=O)O)C(=O)O)C(=O)NCC(=O)NCC(=O)N1CCC[C@H]1C(=O)N[C@@H](CO)C(=O)N[C@@H](CO)C(=O)NCC(=O)N[C@@H](C)C(=O)N1CCC[C@H]1C(=O)N1CCC[C@H]1C(=O)N1CCC[C@H]1C(=O)N[C@@H](CO)C(N)=O)[C@@H](C)CC)[C@@H](C)CC [Example 340]	87.9%	0.0206 nM	> 9950 nM	> 9950 nM	112%	105%	0.409 nM	95.2%	–	–
CC[C@H](C)[C@H](NC(=O)[C@H](CCCN)NC(=O)[C@H](CC(=O)O)NC(=O)[C@H](CC(C)C)NC(=O)[C@](C)(CC(C)C)NC(=O)[C@@H](NC(=O)C(C)(C)NC(=O)[C@H](Cc1ccncc1)NC(=O)[C@H](CC(=O)O)NC(=O)[C@H](CO)NC(=O)[C@@H](NC(=O)[C@](C)(Cc1ccccc1F)NC(=O)[C@@H](NC(=O)CNC(=O)[C@H](CCC(=O)O)NC(=O)C(C)(C)NC(=O)[C@@H](N)Cc1ccc(O)cc1)[C@@H](C)O)[C@@H](C)O)[C@@H](C)CC)C(=O)N[C@@H](C)C(=O)N[C@@H](CCC(N)=O)C(=O)NC(C)(C)C(=O)N[C@@H](CCCCNC(=O)COCCOCCNC(=O)CC[C@H](NC(=O)CCCCCCCCCCCCC(=O)O)C(=O)O)C(=O)N[C@@H](Cc1ccccc1)C(=O)N[C@H](C(=O)N[C@H](CCC(=O)O)C(=O)N[C@@](C)(Cc1ccc(O)cc1)C(=O)N[C@@H](CC(C)C)C(=O)N[C@H](C(=O)N[C@@H](CCC(=O)O)C(=O)NCC(=O)NCC(=O)N1CCC[C@H]1C(=O)N[C@@H](CO)C(=O)N[C@@H](CO)C(=O)NCC(=O)N[C@@H](C)C(=O)N1CCC[C@H]1C(=O)N1CCC[C@H]1C(=O)N1CCC[C@H]1C(=O)N[C@@H](CO)C(=O)N[C@@H](CCCCNC(=O)COCCOCCNC(=O)CC[C@H](NC(=O)CCCCCCCCCCCCC(=O)O)C(=O)O)C(N)=O)[C@@H](C)CC)[C@@H](C)CC [Example 341] (H-Y[Aib]EGT[αMePhe(2-F)]TSD[4Pal][Aib]I[αMeL]LD[Orn]IAQ[Aib]K([AEEA-γGlu-C14 diacid])FI[dE][αMeY]LIEGGPSSGAPPPSK([AEEA-γGlu-C14 diacid])-NH2)	83.6%	0.0127 nM	> 9950 nM	> 9950 nM	113%	–	0.329 nM	91.4%	–	–
CC[C@H](C)[C@H](NC(=O)[C@H](CCCN)NC(=O)[C@H](CC(=O)O)NC(=O)[C@H](CC(C)C)NC(=O)[C@](C)(CC(C)C)NC(=O)[C@@H](NC(=O)C(C)(C)NC(=O)[C@H](Cc1ccncc1)NC(=O)[C@H](CC(=O)O)NC(=O)[C@H](CO)NC(=O)[C@@H](NC(=O)[C@](C)(Cc1ccccc1F)NC(=O)[C@@H](NC(=O)CNC(=O)[C@H](CCC(=O)O)NC(=O)C(C)(C)NC(=O)[C@@H](N)Cc1ccc(O)cc1)[C@@H](C)O)[C@@H](C)O)[C@@H](C)CC)C(=O)N[C@@H](C)C(=O)N[C@@H](CCC(N)=O)C(=O)NC(C)(C)C(=O)N[C@@H](CCC(=O)O)C(=O)N[C@@H](Cc1ccccc1)C(=O)N[C@H](C(=O)N[C@@H](CCCCNC(=O)COCCOCCNC(=O)COCCOCCNC(=O)COCCOCCNC(=O)CC[C@H](NC(=O)CCCCCCCCCCCCC(=O)O)C(=O)O)C(=O)N[C@@](C)(Cc1ccc(O)cc1)C(=O)N[C@@H](CC(C)C)C(=O)N[C@H](C(=O)N[C@@H](CCCCNC(=O)COCCOCCNC(=O)COCCOCCNC(=O)COCCOCCNC(=O)CC[C@H](NC(=O)CCCCCCCCCCCCC(=O)O)C(=O)O)C(=O)NCC(=O)NCC(=O)N1CCC[C@H]1C(=O)N[C@@H](CO)C(=O)N[C@@H](CO)C(=O)NCC(=O)N[C@@H](C)C(=O)N1CCC[C@H]1C(=O)N1CCC[C@H]1C(=O)N1CCC[C@H]1C(=O)N[C@@H](CO)C(N)=O)[C@@H](C)CC)[C@@H](C)CC [Example 342]	89.3%	0.0105 nM	> 10100 nM	> 9950 nM	–	113%	0.191 nM	–	1.04 nM	13.6 nM
CC[C@H](C)[C@H](NC(=O)[C@H](CCCN)NC(=O)[C@H](CC(=O)O)NC(=O)[C@H](CC(C)C)NC(=O)[C@](C)(CC(C)C)NC(=O)[C@@H](NC(=O)C(C)(C)NC(=O)[C@H](Cc1ccc(O)cc1)NC(=O)[C@H](CC(=O)O)NC(=O)[C@H](CO)NC(=O)[C@@H](NC(=O)[C@](C)(Cc1ccccc1F)NC(=O)[C@@H](NC(=O)CNC(=O)[C@H](CCC(=O)O)NC(=O)C(C)(C)NC(=O)[C@@H](N)Cc1ccc(O)cc1)[C@@H](C)O)[C@@H](C)O)[C@@H](C)CC)C(=O)N[C@@H](C)C(=O)N[C@@H](CCC(N)=O)C(=O)NC(C)(C)C(=O)N[C@@H](CCC(=O)O)C(=O)N[C@@H](Cc1ccccc1)C(=O)N[C@H](C(=O)N[C@@H](CCCCNC(=O)COCCOCCNC(=O)COCCOCCNC(=O)COCCOCCNC(=O)CC[C@H](NC(=O)CCCCCCCCCCCCC(=O)O)C(=O)O)C(=O)N[C@@](C)(Cc1ccc(O)cc1)C(=O)N[C@@H](CC(C)C)C(=O)N[C@H](C(=O)N[C@@H](CCCCNC(=O)COCCOCCNC(=O)COCCOCCNC(=O)COCCOCCNC(=O)CC[C@H](NC(=O)CCCCCCCCCCCCC(=O)O)C(=O)O)C(=O)NCC(=O)NCC(=O)N1CCC[C@H]1C(=O)N[C@@H](CO)C(=O)N[C@@H](CO)C(=O)NCC(=O)N[C@@H](C)C(=O)N1CCC[C@H]1C(=O)N1CCC[C@H]1C(=O)N1CCC[C@H]1C(=O)N[C@@H](CO)C(N)=O)[C@@H](C)CC)[C@@H](C)CC [Example 343]	90.2%	0.0111 nM	> 9950 nM	> 9950 nM	98.2%	–	0.275 nM	98.8%	–	–
